US4218472A, “Geminally disubstituted indene derivatives” (AB Kabi, priority 1977, dated 1980)
Read-outs that look alike come from different tables or passages of the source.

Legend:
Type in all cases: cell-based
rat vas deferens = test: Effect on Rat Isolated Vas Deferens; details: for minimal effective concentration: read-out: threshold conc.; for Emax: read-out: max. effect, % of NA max.; for effect on rat vas deferens (in words): noradrenaline-like activity
From the text: Effect on Rat Isolated Vas Deferens
Male albino rats weighing 250-350 g were anaesthetized with diethyl ether and then decapitated. The vas deferens was removed, freed from mesenteric attachments and then suspended in Kreb's bicarbonate solution (Hukovic, 1961). Threads were attached to both ends of the organ. The distal part was tied to a fixed pin in the organ bath and the proximal part to a force displacement transducer connected to a recording system. […] The load on the organ was adjusted to 0.5 g. The vas deferens was allowed to stabilize for 15 minutes before dose-response curves were obtained.
The technique for making cumulative dose-response curves in accordance with van Rossum (1963) was employed. The stimulating drug, noradrenaline (NA), was added to the bath in a manner to achieve geometrically increasing concentrations in the organ bath without washings in between. After each injection of NA the organ was allowed to contract until a state of equilibrium had been reached, and then the next dose of NA was added. This procedure was repeated until no further increase in contraction was obtained. The dosage of NA was adapted to give a concentration step in the bath of 1/2 log 10. The tested concentration interval was 10^-8 -10^-4 M, 3.10^-4 M plus maximum effect at 3 10^-5 and 10^-4 M. Compounds of formula I, identified as 2-12, and comparison compounds 13-15, were tested by the same technique. The compounds conform to the formula below except where indicated for other values of R^1, R^2 and R^3.

urethra strip (cat) = test: Effect on urethra strip of cat; details: Felis catus, isometric tension, Tyrode solution 37° C., pH 7.5
Experimental: (§1) Effect on urethra strip of cat and aortic strip of rabbit Adult male and female cats weighing 2-5 kg were used. The animals were anaesthetized with pentobarbital, 30-50 mg/kg intraperitoneally. An abdominal incision was made and the bladder and urethra were dissected free and cut. The bladder and urethra were placed in Tyrode solution of room temperature. Care was taken to keep the tissue moist during the preparation. The bladder was cut away and the urethra was cut longitudinally. Segments of 2-3 mm width were mounted in an organ-bath with Tyrode solution at 37° C. and connected to a strain gauge transducer so that the isometric tension could be recorded. The preparation was maintained at pH 7.5 by bubbling a mixture of 93.5 volume-% O2 and 6.5 volume-% CO2 through the solution. This experimental set up thus allowed the recording of circular muscle activity as isometric tension changes. The initial tension was set at approximately 0.5 g. After mounting, the preparation was allowed 1 hour for acclimatization before starting the experiment. All recordings were made from the base line. The drugs were added directly to the organ-baths and cumulative dose-response curves were recorded. Noradrenaline has consistently been used as a reference drug for agonistic action. The substances tested as agonists were noradrenaline bitartrate (NA) and the above compound No. 3. […]

aortic strip (rabbit) = test: Effect on aortic strip of rabbit; details: Oryctolagus cuniculus
Experimental: as §1

[1] = rat isolated vas deferens, contraction relative to noradrenaline maximum
[2] = Rattus norvegicus, rat isolated vas deferens, cumulative dose-response, 31° C.
[3] = rat isolated vas deferens, cumulative dose-response, 31° C.

Compound | minimal effective concentration (rat vas deferens; [2]) [µM] | Emax (rat vas deferens; [1]) [%] | EC50 (rat vas deferens; [3]) [µM] | other results
2-tert.-Butylamino-1-[spiro(cyclopentane-1,1'-indene)-3'-yl]ethanol [Example 11] |  |  |  | max. effect, % of NA max. (rat vas deferens; [1]): 90%
CCNCC(O)C1=CC2(CCCC2)c2ccccc21 (stereo not drawn) [No. 4, 2-Ethylamino-1-[spiro(cyclopentane-1,1'-indene)-3'-yl]ethanol] | 0.5 | 85 | 1.5 | 
NCC(O)C1=CC2(CCC2)c2ccccc21 (stereo not drawn) [No. 7] |  | 120 | 15 | 
NCC(O)C1=CC2(CCCC2)c2ccccc21 (stereo not drawn) [No. 2, 2-Amino-1-[spiro(cyclopentane-1,1'-indene)-3'-yl]ethanol] | 0.1 | 100 | 40 | 
2-Pyrrolidino-1-[spiro)cyclopentane-1,1'-indene)-3'-yl]-ethanol [Example 5] |  |  |  | max. effect, % of NA max. (rat vas deferens; [1]): 50%; threshold conc. (rat vas deferens; [3]): 10^-5 - 10^-4 M
CC1(C)C=C(C(O)CN)c2ccccc21 (stereo not drawn) [No. 8, 2-Amino-1-(1,1-dimethylindene-3-yl)ethanol] | 0.3 | 100 | 2 | 
2-Isopropylamino-1-[spiro(cyclopentane-1,1'-indene)-3'-yl]ethanol [Example 12] |  |  |  | max. effect, % of NA max. (rat vas deferens; [1]): 35%
CNCC(O)C1=CC2(CCCC2)c2ccccc21 (racemic) [No. 3, 2-Methylamino-1-[spiro(cyclopentane-1,1'-indene)-3'-yl]ethanol] | 0.03 | 100 | 0.15 | EC50 (urethra strip (cat)): 0.69 µM; EC50 (aortic strip (rabbit)): 0.045 µM
CC(C)NCC(O)C1=CC2(CCCC2)c2ccccc21 (stereo not drawn) [No. 6] |  | 90 | 4 | 
CN(C)CC(=O)C1=CC2(CCCC2)c2ccccc21 [No. 13, reference compound] |  | 0 |  | effect on rat vas deferens (in words) (rat vas deferens): inactive
COc1ccc2c(c1)C(C(O)CN)=CC21CCCC1 (stereo not drawn) [No. 10, 2-Amino-1-[5'-methoxyspiro(cyclopentane-1,1'-indene)-3'-yl]-ethanol] | 5 | 65 | 50 | 
NC[C@H](O)c1ccc(O)c(O)c1 [No. 1, noradrenaline, reference compound] | 1 | 100 | 30 | EC50 (urethra strip (cat)): 27 µM; EC50 (aortic strip (rabbit)): 0.18 µM
CNCC(O)C1CC2(CCCC2)c2ccccc21 (stereo not drawn) [No. 14, reference compound] |  | 0 |  | effect on rat vas deferens (in words) (rat vas deferens): effect disappears
CNCCC1=CC2(CCCC2)c2ccccc21 [No. 15, reference compound] |  |  |  | Emax (rat vas deferens; Rattus norvegicus): 0%; effect on rat vas deferens (in words) (rat vas deferens): effect disappears
NCC(O)C1=CC2(CCCCC2)c2ccccc21 (stereo not drawn) [No. 9, 2-Amino-1-[spiro(cyclohexane-1,1'-indene)-3'-yl]ethanol] | 3 | 70 | 15 | 
